Patent US20070224635A1, “Regulated Stop Codon Readthrough” (Maxygen Holdings, Ltd., priority 2004, published 2007)

Legend:
UAA stop codon = assay: FACS detection of membrane-anchored FVII (FVII-UAA-GPI) in transfected CHO-K1 cells without antibiotic resistance gene; type: cell-based, Chinese hamster (CHO-K1 cells)
Method: The resulting PCR product encompassed the CMV promoter, the b-globin intron, the FVII gene, the UAA stop codon, the GPI anchor signal and the b-globin poly-adenylation signal (FIG. 11). The PCR product was purified and subsequently used to transfect CHO-Kcells with Lipofectamine™ 2000 (Invitrogen) as described above. Additionally, a flask containing CHO-K1 cells was incubated with Lipofectamine™ 2000 but without DNA as a negative control. Five hours after transfection, G-418 was added to the two culture flasks at a final concentration of 100 mg/L to promote translational readthrough. […] Labeled retroviral cell lines were analyzed by FACS for membrane-anchored recombinant FVII using a FACSVantage™ (Becton Dickinson) instrument with an excitation wave length of 488 nm and an emission filter of 585 nm.
Because expression of the recombinant FVII protein is correlated with expression of the FVII-GPI protein fusion arising from aminoglycoside-mediated translational readthrough, transgenic cells can be selected by means of FACS based on membrane-anchored FVII detection. […] Approximately 2500 cells from gate R3 of the transfected cells were sorted as a pool and grown for 9 days in the absence of antibiotic, after which translational readthrough was induced by treating the cells with G-418 at 100 mg/L for 2 days. […]

[1] = test system: UGA stop codon (UGAC tetranucleotide); assay: FACS analysis of membrane-anchored protein C after G-418-induced readthrough, PC-UGAC-GPI construct; type: cell-based, Chinese hamster (CHO-K1 cells); conditions: with G-418, background in absence of G-418 about 13%
Method: (§1) As a control, the retroviral vector pLenti6-PC-GPI was used to transfect HEK293FT cells and produce retrovirus particles. After 48 hours, supernatants containing retroviral particles were harvested, filter-sterilized to remove cell debris, and subsequently used to infect CHO-K1 cells. CHO-K1 cells were selected for resistance to the Blasticidin antibiotic at the concentration of 5 mg/l for 10 days. The resulting pools of Blasticidin-resistant cells were transferred into 6 culture flasks for each cell pool and grown to 25% confluency. To induce translational readthrough, the antibiotic G-418 was added to the culture flasks at final concentrations ranging from 12.5 mg/l to 100 mg/l and flasks were incubated for another 48 hours at 37° C. […] Labeled retroviral cell lines were analyzed by FACS for membrane-anchored recombinant PC using a FACScalibur™ (Becton Dickinson) instrument with an excitation wave length of 488 nm and an emission filter of 585 nm.
(§2) The results shown in FIG. 4 illustrate that both cell lines expressing the PC-UAAC-GPI and PC-UGAC-GPI reporters display PC at the cell surface in the presence of aminoglycoside. […] Furthermore, the amount of recombinant membrane-anchored PC is more abundant for the PC-UGAC-GPI construct than for the PC-UAAC-GPI construct, and this applies to all aminoglycoside concentrations that were assessed.

[2] = test system: UAA stop codon (UAAC tetranucleotide); assay: FACS analysis of membrane-anchored protein C after G-418-induced readthrough, PC-UAAC-GPI construct; type: cell-based, Chinese hamster (CHO-K1 cells); conditions: with G-418, background in absence of G-418 about 0.5%
Method: as §1, §2

premature UAG mutation = conditions: cultured mammalian cells; cited from earlier work
[3] = test system: nonsense mutation in CFTR; conditions: cell line carrying a nonsense mutation in CFTR; cited from earlier work

In the case of `CN[C@@H]1[C@@H](O)[C@@H](O[C@@H]2[C@@H](O)[C@H](O[C@H]3O[C@H]([C@@H](C)O)[C@@H](O)[C@H](O)[C@H]3N)[C@@H](N)C[C@H]2N)OC[C@]1(C)O` [G-418], the “cells positive for FVII display, second FACS round” value (UAA stop codon; G-418 100 mg/L for 2 days after 9 days growth, non-transfected control 1.1%, FIG. 13) is reported as 3.4%, the “transfected CHO-K1 cells exhibiting fluorescence signals (gate R3), first FACS round” value (UAA stop codon; G-418 100 mg/L, negative control 0.4%, FIG. 12) is reported as 7.1% and the “FACS-positive cells (up to)” value [1] is reported as “about 25%”. The “FACS-positive cells (up to)” value [2] was “about 10%”.
For `NC[C@@H]1O[C@H](O[C@H]2[C@@H](O)[C@H](O[C@@H]3[C@@H](O)[C@H](N)C[C@H](N)[C@H]3O[C@H]3O[C@H](CO)[C@@H](O)[C@H](O)[C@H]3N)O[C@@H]2CO)[C@H](N)[C@@H](O)[C@@H]1O` [paromomycin], the “synthesis of full-size protein from mutant gene” value (premature UAG mutation) is listed as “partially restore the synthesis of a full-size protein”.
For gentamicin, the “expression of CFTR protein” value [3] is listed as “restore the expression”.
